According to patent publication US6667387B1, “HCV core peptides” (priority 1992, dated 2003):
* marks the point of attachment. Biotin = O=C1N[C@H]2[C@H](CS[C@H]2CCCCC(=O)*)N1

What was measured:
[1] = system: antibodies in sera from HCV-seropositive donors; assay: ELISA with HCV antibody-positive sera (biotinylated peptides on streptavidin- or avidin-coated plates, unbiotinylated peptides coated directly); assay type: binding, human; conditions: for PEPTIDE ELISA (O.D.): Table 12, biotinylated 20-mers
Method: (§1) Where peptides were to be coated directly, stock solutions of the peptides were diluted in sodium carbonate buffer, pH 9.6 and used to coat polystyrene microtiter plates at a peptide concentration of 2 to 5 micrograms per milliliter for 1 hour at 37° C.
(§2) In cases where biotinylated peptides were to be evaluated, plates were first coated with streptavidin in sodium carbonate buffer, pH 9.6 at a concentration of 3 micrograms per milliliter for 1 hour at 37° C. The plates were then washed to remove excess, unbound protein. A working solution of the biotinylated peptide at 1 microgram per milliliter in sodium carbonate buffer was then added to the wells of the microtiter plate and incubated for 1 hours at 37° C.
(§3) Once the plates had been coated with antigen, any remaining free binding sites on the plastic were blocked with casein. After washing, a dilution of the appropriate antisera, usually 1:100, was added to the wells of the plates and incubated for 1 hour at 37° C.
(§4) After washing to remove unbound material, specific antibody binding was detected by incubating the plates with goat anti-human immunoglobulin antibodies conjugated to the enzyme horseradish peroxidase. Following removal of unbound conjugate by washing, a solution containing H2O2 and 3,3′,5,5′-tetramethylbenzidine was added.
(§5) Reactions were stopped after a suitable interval by addition of sulfuric acid. […] Absorbance measurements were made at a wavelength of 450 nanometers and all data are expressed as an optical density value at this wavelength.
The unbiotinylated peptides were adsorbed onto the wells of polystyrene microtiter plates at a concentration of 3 micrograms per milliliter.
The biotinylated peptides were bound at a concentration of 1 microgram per milliliter to streptavidin-coated microtiter plates. Sera known to contain antibodies to these peptides were used for the evaluation and were tested at a 20-fold dilution.
To investigate further the enhanced antibody recognition of biotinylated HCV peptides bound to streptavidin or avidin as compared to direct adsorption on plastic, the influence of peptide coating concentration was investigated. Three peptides (HCV peptides II, XI, and XVI) were coated in concentrations ranging from 10 nanograms per milliliter to 3 micrograms per milliliter in a volume of 200 microliters per microtiter plate well. For direct coating, the unbiotinylated versions of these peptides were used. The biotinylated versions of these peptides were used to coat wells to which streptavidin had previously been adsorbed. Sera known to contain antibodies to these peptides were used at a dilution of 1 to 100 to evaluate the magnitude of antibody binding.
(§6) Unbiotinylated HCV peptide I was coated directly onto the wells of a polystyrene ELISA plate at a concentration of 3 micrograms per milliliter in sodium carbonate buffer, pH 9.6. Biotinylated HCV peptide I was bound to streptavidin-coated wells using a stock solution containing the peptide at a concentration of 1 microgram per milliliter. The resulting plates were then incubated in parallel with a panel of sera from HCV-seropositive donors. […] Two of the sera (8326 and 8244) recognize the biotinylated version of this peptide far better than the unbiotinylated version. The specificity of the antibody reaction is also reflected by the low optical density values obtained for 5 serum samples from uninfected donors (F88, F89, F76, F136, and F6).
To determine how well biotinylated peptides would function in a mixture when bound to streptavidin- or avidin-coated plates, two mixtures were made of the N-terminally biotinylated versions of the HIV-1 peptides TM-HIV-1 (hereabove referred to as 1a.1) and V3-nm (hereabove referred to as 1b.4), the HIV-2 peptide TM-HIV-2 (hereabove referred to as 2a), and the hepatitis C virus peptides II, IX, and XVIII. […]

[2] = ELISA with seronegative / negative control sera (specificity); assay type: binding, human
Method: as §1, §2, §3, §4, §5, §6
To determine how well biotinylated peptides would function in a mixture when bound to streptavidin- or avidin-coated plates, two mixtures were made of the N-terminally biotinylated versions of the HIV-1 peptides TM-HIV-1 (hereabove referred to as 1a.1) and V3-nm (hereabove referred to as 1b.4), the HIV-2 peptide TM-HIV-2 (hereabove referred to as 2a), and the hepatitis C virus peptides II, IX, and XVIII. Mixture A contained each of the six biotinylated peptides at a concentration of 1 microgram per milliliter (6 micrograms per milliliter peptide, total) while in mixture B, each peptide was present at a concentration of 0.1 microgram per milliliter (0.6 microgram per milliliter peptide, total). The individual peptides were coated at a concentration of 1 microgram per milliliter. For purposes of comparison, mixtures A and B were also coated directly onto the wells of a microtiter plate. Samples from HIV-1, HIV-2, and HCV-seropositive donors were tested and compared to sera from seronegative blood donors. A cut-off absorbance value of 0.250 was used to determine whether a reaction was positive or negative. Absorbance values equal or greater than 0.250 were considered positive while absorbance values below this value were considered negative.

H2N-Met-Ser-Thr-Ile-Pro-Lys-Pro-Gln-Arg-Lys-Thr-Lys-Arg-Asn-Thr-Asn-Arg-Arg-Pro-Gln-Gly-Gly-Lys (Bio)-CONH2 (H-MSTIPKPQRKTKRNTNRRPQGGK(Biotin)-NH2; SMILES CC[C@H](C)[C@H](NC(=O)[C@@H](NC(=O)[C@H](CO)NC(=O)[C@@H](N)CCSC)[C@@H](C)O)C(=O)N1CCC[C@H]1C(=O)N[C@@H](CCCCN)C(=O)N1CCC[C@H]1C(=O)N[C@@H](CCC(N)=O)C(=O)N[C@@H](CCCNC(=N)N)C(=O)N[C@@H](CCCCN)C(=O)N[C@H](C(=O)N[C@@H](CCCCN)C(=O)N[C@@H](CCCNC(=N)N)C(=O)N[C@@H](CC(N)=O)C(=O)N[C@H](C(=O)N[C@@H](CC(N)=O)C(=O)N[C@@H](CCCNC(=N)N)C(=O)N[C@@H](CCCNC(=N)N)C(=O)N1CCC[C@H]1C(=O)N[C@@H](CCC(N)=O)C(=O)NCC(=O)NCC(=O)N[C@@H](CCCCNC(=O)CCCC[C@@H]1SC[C@@H]2NC(=O)N[C@@H]21)C(N)=O)[C@@H](C)O)[C@@H](C)O) [HCV peptide I carboxy-biotinylated]
optical density (450 nm) ([1]; Table 7, serum 6378, HCV antibody-positive): 2.531
optical density (450 nm) ([1]; Table 7, serum 8242, HCV antibody-positive): 2.389
optical density (450 nm) ([1]; Table 7, serum 8243, HCV antibody-positive): 2.541
optical density (450 nm) ([1]; Table 7, serum 8244, HCV antibody-positive): 1.399
optical density (450 nm) ([1]; Table 7, serum 8248, HCV antibody-positive): 2.493
optical density (450 nm) ([1]; Table 7, serum 8316, HCV antibody-positive): 2.541
optical density (450 nm) ([1]; Table 7, serum 8318, HCV antibody-positive): 2.404
optical density (450 nm) ([1]; Table 7, serum 8320, HCV antibody-positive): 2.762
optical density (450 nm) ([1]; Table 7, serum 8326, HCV antibody-positive): 1.775
optical density (450 nm) ([1]; Table 7, serum 8329, HCV antibody-positive): 2.672
optical density (450 nm) ([1]; Table 7, serum 8330, HCV antibody-positive): 2.651
optical density (450 nm) ([1]; Table 7, serum 8333, HCV antibody-positive): 2.545
optical density (450 nm) ([1]; Table 7, serum 8334, HCV antibody-positive): 2.549
optical density (450 nm) ([1]; Table 7, serum 8336, HCV antibody-positive): 2.016
optical density (450 nm) ([1]; Table 7, serum 8344, HCV antibody-positive): 2.010
optical density (450 nm) ([1]; Table 7, serum 8364, HCV antibody-positive): 2.705
optical density (450 nm) ([1]; Table 7, serum 8374, HCV antibody-positive): 2.151
optical density (450 nm) ([1]; Table 7, serum 8387, HCV antibody-positive): 2.628
optical density (450 nm) ([2]; Table 7, serum F8, HCV antibody-negative): 0.000
optical density (450 nm) ([2]; Table 7, serum F76, HCV antibody-negative): 0.022
optical density (450 nm) ([2]; Table 7, serum F88, HCV antibody-negative): 0.026
optical density (450 nm) ([2]; Table 7, serum F89, HCV antibody-negative): 0.001
optical density (450 nm) ([2]; Table 7, serum F136, HCV antibody-negative): 0.002

HCV-7: biotinylated 20-mer, HCV NS4 aa 1724-1743, SEQ ID NO:55
PEPTIDE ELISA (O.D.) ([1]; serum 0843): 2.251
PEPTIDE ELISA (O.D.) ([1]; serum 8240): 1.963
PEPTIDE ELISA (O.D.) ([1]; serum 8241): 0.968
PEPTIDE ELISA (O.D.) ([1]; serum 8242): 1.252
PEPTIDE ELISA (O.D.) ([1]; serum 8332): 0.945
PEPTIDE ELISA (O.D.) ([1]; serum 8339): 0.041
PEPTIDE ELISA (O.D.) ([1]; serum 8350): 0.598
PEPTIDE ELISA (O.D.) ([1]; serum 8377): 1.829
PEPTIDE ELISA (O.D.) ([1]; serum 8378): 2.006
PEPTIDE ELISA (O.D.) ([1]; serum 8388): 2.504
antibody binding to the 20-mers ([1]; serum 8241): Moderate binding

Leu-Arg-Lys-Ser-Arg-Arg-Phe-Ala-Gln-Ala-Leu-Pro-Val-Trp-Ala-Arg-Pro-Asp-Tyr-Asn [Unbiotinylated peptide XVI] (LRKSRRFAQALPVWARPDYN; printed: Leu-Arg-Lys-Ser-Arg-Arg-Phe-Ala-Gln-Ala-Leu-Pro-Val-Trp-Ala-Arg-Pro-Asp-Tyr-Asn)
optical density (450 nm) ([1]; Table 4B, serum 1, 20-fold dilution): 1.038
optical density (450 nm) ([1]; Table 4B, serum 2, 20-fold dilution): 0.616
optical density (450 nm) ([1]; Table 4B, serum 6, 20-fold dilution): 0.100
optical density (450 nm) ([1]; Table 4B, serum 8, 20-fold dilution): 0.329
optical density (450 nm) ([1]; Table 4B, serum 10, 20-fold dilution): 1.033
optical density (450 nm) ([1]; Table 4B, serum 26, 20-fold dilution): 0.053
optical density (450 nm) ([1]; Table 4B, serum 83, 20-fold dilution): 0.912
optical density (450 nm) ([1]; Table 4B, serum 88, 20-fold dilution): 1.187
optical density (450 nm) ([1]; Table 4B, serum 89, 20-fold dilution): 0.495
optical density (450 nm) ([1]; Table 4B, serum 91, 20-fold dilution): 0.197
optical density (450 nm) ([1]; Table 4B, serum 95, 20-fold dilution): 0.109
optical density (450 nm) ([1]; Table 4B, serum 99, 20-fold dilution): 0.814
optical density (450 nm) ([1]; Table 4B, serum 100, 20-fold dilution): 0.474
optical density (450 nm) ([1]; Table 4B, serum 104, 20-fold dilution): 0.205
optical density (450 nm) ([1]; Table 4B, serum 105, 20-fold dilution): 0.313
optical density (450 nm) ([1]; Table 4B, serum 110, 20-fold dilution): 0.762
optical density (450 nm) ([1]; Table 4B, serum 111, 20-fold dilution): 0.193
optical density (450 nm) ([1]; Table 4B, serum 112, 20-fold dilution): 0.253
optical density (450 nm) ([1]; Table 4B, serum 113, 20-fold dilution): 0.833
optical density (450 nm) ([1]; Table 4B, serum 116, 20-fold dilution): 0.058
optical density (450 nm) ([1]; Table 4B, serum 120, 20-fold dilution): 0.964
optical density (450 nm) ([1]; Table 4B, serum 266, 20-fold dilution): 0.712
optical density (450 nm) ([1]; Table 4B, serum 8247, 20-fold dilution): 0.059
optical density (450 nm) ([1]; Table 4B, serum 11476, 20-fold dilution): 0.068
optical density (450 nm) ([1]; Table 4B, serum 24758, 20-fold dilution): 0.071
optical density (450 nm) ([2]; Table 4B, negative serum): 0.063
